Laboratory results: publication PMC6917776, “Discovery of a chemical probe for PRDM9” (Nature Communications, 2019)

Tested on: H3K4me3 at known PRDM9 binding loci and control TSS loci
Experiment: ChIP-qPCR of H3K4me3 in PRDM9-transfected HEK293T cells
Type: cell-based, human
Conditions: Replicate 1; for 2^-dCq (H3K4me3 ChIP relative to H3 ChIP): Figure 7 C, Antibody H3K4me3; for 2^-dCq: H3K4me3 ChIP normalised to H3; for dCq (IP-Input): H3K4me3 antibody
Experimental: ChIP-qPCR assays were then conducted on known PRDM9 binding loci[26]. Ectopic expression of PRDM9^WT increased trimethylation of H3K4 (H3K4me3) at previously described PRDM9-specific intragenic and intergenic regions[26] (Fig. 7; Supplementary Fig. 12). […] The observed increases in H3K4me3 levels at intragenic and intergenic regions are therefore due directly to PRDM9 PR domain-dependent methylation activity, rather than through recruitment of other H3K4 methyltransferases or other indirect mechanisms.
ChIP qPCR analyses of H3K4me3 methylation levels of known PRDM9-bound loci and control loci. […] Concentrations used (µM) are indicated below each plot. (a–d) represent reported loci of PRDM9 methylation; (e, f) are transcriptional start sites (TSSs) which are not known loci of PRDM9 methylation. Data are normalized to total H3 and are presented as the mean ± upper and lower limits from two replicates. Representative plots of two independent experiments are shown in this figure. The coordinates and the genomic features associated with the assayed loci are indicated above each plot. Left Tailed Student's t-tests were performed by comparing DMSO (0 µM) treated cells to compound treated cells that have been transfected with the same plasmids. *p-value < 0.05 and **p-value < 0.01. Note that here we show a representative of two independent experiments (mean ± s.d of technical replicates) for our ChIP-qPCR experiments. Data obtained using this technique are inherently noisy due to stochastic differences in gene activity/histone positioning. Data are thus typically presented as representative rather than averaged. Source data are provided as a Source Data file.
HEK293T cells were transfected with 37.5 μg empty pcDNA3.1(+) vector (Invitrogen), or the same vector expressing either wild-type PRDM9 (PRDM9^WT) or a catalytically dead PRDM9 mutant (PRDM9^Mut) and 75 μL of Lipofectamine 2000 (Invitrogen) in 6 mL of Opti-MEM (GIBCO) for 48 h. […] ChIP assays were then performed as previously described. Briefly, cells were fixed in 1% formaldehyde and the fixation reaction was quenched in a final concentration of 0.1 M glycine. Cell pellets were first lysed in LB1 (50 mM HEPES-KOH pH 7.5, 140 mM NaCl, 1 mM EDTA, 10% Glycerol, 0.5% Igepal, 0.25% TritonX), washed once in LB2 Buffer (10 mM Tris-HCl pH 8, 200 mM NaCl, 1 mM EDTA, 0.5 mM EGTA) and finally sonicated in LB3 buffer (10 mM Tris-HCl pH 8, 100 mM NaCl, 1 mM EDTA, 0.5 mM EGTA, 0.1% Sodium deoxycholate, 0.5% N-laurosylsarcosine) using a bioruptor (Diagenode). Thereafter, 50 μg of chromatin was subjected to ChIP using the following antibodies purchased from Abcam: α-H3K4me3 (1:200, ab8580, lot:GR3207339-1) and α-H3 (1:250, ab1791, lot:GR300978-4). After extensive washing in RIPA wash buffer (50 mM HEPES-KOH pH 7.6, 100 mM LiCl, 1 mM EDTA, 1% Igepal, 0.7% Sodium Deoxycholate), DNA was eluted from beads. The eluted DNA was treated with RNase A and Proteinase K and purified using the QIAGEN PCR purification kit. qPCR was then carried out targeting the indicated loci (Supplementary Table 3). Upper and lower limits were defined by |2^−(dCq±s) − 2^−(∆Cq)|, where s = √((Standard deviation of Input Cq)^2 + (Standard deviation of Target Cq)^2). […]
formation. ChIP qPCR analyses of H3K4me3 methylation levels at known PRDM9-bound and control loci. Cells transfected with empty vector (negative control) or vectors overexpressing either wild-type PRDM9 (PRDM9 WT) or catalytically dead PRDM9 (PRDM9 MUT) were […]
Panels a-d represent reported loci of […]
(1 picture or pasted object on this page, not shown here)
PRDM9 methylation; e-f are TSSs which are not known sites of PRDM9 methylation. Data are normalized to total H3 and are presented as the mean ± upper and lower limits from two […]

[1] = chr2:40281930-40282015 Intragenic (SLC8A1-AS1), Empty Vector
[2] = chr2:40281930-40282015 Intragenic (SLC8A1-AS1), PRDM9
[3] = chr2:40281930-40282015 Intragenic (SLC8A1-AS1), PRDM9_Cat.Dead
[4] = chr2:128811847-128811944 (Intergenic), Empty Vector
[5] = chr2:128811847-128811944 (Intergenic), PRDM9
[6] = chr2:128811847-128811944 (Intergenic), PRDM9_Cat.Dead
[7] = chr3:165514798-165514911 Intragenic (BCHE), Empty Vector
[8] = chr3:165514798-165514911 Intragenic (BCHE), PRDM9
[9] = chr3:165514798-165514911 Intragenic (BCHE), PRDM9_Cat.Dead
[10] = chr8:49932778-49932856 (Intergenic), Empty Vector

SMILES: COc1cc(OC)cc(-c2noc(N3CCN(C)C4(CCN(c5ccnc(C)c5)CC4)C3)n2)c1 [MRK-740]
- 2^-dCq (H3K4me3 ChIP relative to H3 ChIP) (chr2:40281930-40282015 Intragenic (SLC8A1-AS1), Plasmid Empty Vector, Drug Conc. 2.5): 0.4152
- 2^-dCq (H3K4me3 ChIP relative to H3 ChIP) (chr2:40281930-40282015 Intragenic (SLC8A1-AS1), Plasmid Empty Vector, Drug Conc. 5): 0.3238
- 2^-dCq (H3K4me3 ChIP relative to H3 ChIP) (chr2:40281930-40282015 Intragenic (SLC8A1-AS1), Plasmid Empty Vector, Drug Conc. 10): 0.507
- 2^-dCq (H3K4me3 ChIP relative to H3 ChIP) (chr2:40281930-40282015 Intragenic (SLC8A1-AS1), Plasmid PRDM9WT, Drug Conc. 2.5): 3.2145
- 2^-dCq (H3K4me3 ChIP relative to H3 ChIP) (chr2:40281930-40282015 Intragenic (SLC8A1-AS1), Plasmid PRDM9WT, Drug Conc. 5): 2.572
- 2^-dCq (H3K4me3 ChIP relative to H3 ChIP) (chr2:40281930-40282015 Intragenic (SLC8A1-AS1), Plasmid PRDM9WT, Drug Conc. 10): 2.028
- 2^-dCq [1]: 0.4145
- 2^-dCq [2]: 3.496
- 2^-dCq [3]: 0.3605
- 2^-dCq [4]: 0.4852
- 2^-dCq [5]: 2.263
- 2^-dCq [6]: 0.5507
- 2^-dCq [7]: 0.3297
- 2^-dCq [8]: 5.1
- 2^-dCq [9]: 0.2515
- 2^-dCq [10]: 0.5103
- 2^-dCq (chr8:49932778-49932856 (Intergenic), PRDM9): 4.604
- 2^-dCq (chr8:49932778-49932856 (Intergenic), PRDM9_Cat.Dead): 0.4888
- 2^-dCq (chr12:6643945-6644023 TSS (GAPDH), Empty Vector): 45.392
- 2^-dCq (chr12:6643945-6644023 TSS (GAPDH), PRDM9): 42.4818
- 2^-dCq (chr12:6643945-6644023 TSS (GAPDH), PRDM9_Cat.Dead): 88.4248
- 2^-dCq (chr19:8510167-8510261 TSS (HNRNPM), Empty Vector): 50.4703
- 2^-dCq (chr19:8510167-8510261 TSS (HNRNPM), PRDM9): 42.5896
- 2^-dCq (chr19:8510167-8510261 TSS (HNRNPM), PRDM9_Cat.Dead): 88.2214
- dCq (IP-Input) [1]: 1.27
- dCq (IP-Input) [2]: -1.806
- dCq (IP-Input) [3]: 1.472
- dCq (IP-Input) [4]: 1.0432
- dCq (IP-Input) [5]: -1.178
- dCq (IP-Input) [6]: 0.8606
- dCq (IP-Input) [7]: 1.601
- dCq (IP-Input) [8]: -2.351
- dCq (IP-Input) [9]: 1.992
- dCq (IP-Input) [10]: 0.9707
